Experimental data: paper PMC11308363, “Bioinformatic, Enzymatic, and Structural Characterization of Trichuris suis Hexosaminidase HEX-2” (Biochemistry, 2024)

Columns and labels:
[1] = molecular target: T1, T. suis HEX-2 (Trichuris suis, UniProt A0A085NCI8); experiment: pNP-β-GalNAc hydrolysis assay with purified enzyme, Ki fitted in Prism; type: biochemical
T1 construct: gene M514_07548; recombinant C-terminally His-tagged, secreted from Pichia; residues 85–620 (long) or 135–620 (short) of the predicted protein

[2] = substrate: CC(=O)N[C@H]1[C@H](Oc2ccc([N+](=O)[O-])cc2)O[C@H](CO)[C@H](O)[C@@H]1O; experiment: Michaelis–Menten kinetics, absorbance assay with purified enzyme (apparent Km); type: biochemical, Trichuris suis

Molecule | Ki [1] | Km [2]
GalNAc-isofagomine | 600 nM | –
T. suis HEX-2 (Trichuris suis) (protein, recombinant C-terminally His-tagged, secreted from Pichia; residues 85–620 (long) or 135–620 (short) of the predicted protein) SNVFIPKRRIVHLDLKGAAPKPQHFRAFFEYFVRIGATGILIEWEDMFPYEGRLSDLRNGDAYSADDVRMILSTADQLRLEVIPLVQTIGHLEWLLKTHKFYSFRENPRNPQSVCVSNAEAVDLVLHLVDQVMAFHKDYGQFVHIGADEVYQYGECSRCVARMNKENLRREDLLLRHIVNVSKHVKTKYGKNVLMWHDMIANIDASLAEKYDLKNLVEPVLWNYAEDLEAFLPMGIWETFSAMVPYMWGSSAFKGADSPTRYHSNVKHYLENHISWIKQMSTASEKFREFRGLIFTGWQRYDHFAVLCEFLPIGIPSLTVNMLTIRNGRFDASVNDQAISIMQCVTGSDVKGDLYGCRFPGSDIYHHVQLLHEKKGEIEKLLLQQSVQGWLSNIAIDYNMSSPWYMNLIVPDLMTYKNQMIELSLNIRQAMLEMFYENAVDEFLFTYVDPVINHLQRLLDRATAIQRRDEFPVRPFPIKRTIDTTR | – | 900 µM
